Measured values: patent US9040573B2, “Anti-fungal agent” (Nihon Nohyaku Co., Ltd., priority 2011, dated 2015)
Values after ≈ are worked out from the molar mass of the structure shown. Read-outs that look alike come from different tables or passages of the source.

How the values were obtained:
[1] = test system: Scytalidium dimidiatum; assay: Antifungal Activity Test 1: MIC by broth microdilution method (Alamar Blue); type: cell-based; conditions: Neoscytalidium dimidiatum; for MIC: growth inhibited by 80% or more, read-out: MIC; for MIC90: concentration to be MIC in 9 strains out of the 10 strains (90%), read-out: MIC90
Excerpt: Scytalidium dimidiatum strain of clinical isolate obtained by separation and identification from nail or stratum corneum of patients with superficial mycosis was used. The fungi pre-cultured on an SDA medium was suspended in 0.1% (w/v) Tween 80-containing sterile saline and the suspension was filtered through gauze to collect arthrospore. This was suspended in 0.1% (w/v) Tween 80-containing sterile saline, and added to a 20% Alamar Blue-containing medium to 2×10^4 cells/mL to give a fungal inoculum solution.
(§1) Each drug was used after dissolving in DMSO (dimethyl sulfoxide).
(§2) The minimum inhibitory concentration (MIC) was measured by a broth microdilution method. That is, RPMI1640 medium (Sigma-Aldrich) was buffered with 0.165 M morpholine propanesulfonic acid (MOPS, Wako Pure Chemical Industries, Ltd.) to pH 7.0, and a given amount of a solution of the drug in DMSO was added thereto to prepare 2-fold dilution series within the range of 0.00098-4 μg/mL. This was added to a 96-well microplate by 100 μL, a fungal inoculum solution (100 μL, final concentration of fungi to be added: 1.0×10^4 cells/mL) was added, and the mixture was cultured at 35° C. An Alamar Blue reagent was added in advance to the culture medium (final addition concentration: 10%) and, at the time point when the Alamar Blue reagent in the drug-free growth control group changed from blue to red, the culture was discontinued and the absorbance (differential optical density at 570 nm based on 590 nm served as reference) measured. The minimum concentration of the drug that inhibited the growth of the fungus in the growth control group by 80% or more was taken as MIC. The concentration to be MIC (MIC90) in 9 strains out of the 10 strains (90%) measured was determined.
Reference documents for measurement method: Takako Shinoda et al.: opinion proposed by Committee for Clinical Laboratory Standards of The Japanese Society for Medical Mycology (1995-1997), Method for antifungal susceptibility testing of filamentous fungus, Medical Mycology Journal, 40: 239-257, 1999. Clinical Laboratory Standards Institute/National Committee for Clinical Laboratory Standards. Reference method for broth dilution antifungal susceptibility testing of filamentous fungus. Approved Standard M38-A2. Wayne, Pa.: National Committee for Clinical Laboratory Standards, 2008. Test Results

[2] = test system: Scytalidium hyalinum; assay: Antifungal Activity Test 2: MIC by broth microdilution method (Alamar Blue); type: cell-based; conditions: Neoscytalidium hyalinum
Description: as §2
Scytalidium hyalinum strain of clinical isolate available from CBS (Netherlands) was used. The fungus was pre-cultured in an SDA medium, 0.1% (w/v) Tween 80-containing sterile saline was added to give a suspension, which was filtered through gauze to collect arthrospore. This was suspended in 0.1% (w/v) Tween 80-containing sterile saline, and added to a 20% Alamar Blue-containing medium to 2×10^4 cells/mL to give a fungal inoculum solution.
as §1
The test method was the same as in the aforementioned antifungal activity test 1, and the minimum concentration of the drug that inhibited the growth of the fungus in the growth control group by 80% or more was taken as MIC. The MIC range of the 4 strains measured and the geometric mean (GM) of each drug were determined.

[3] = clinical isolate CBS200.88, growth inhibited by 80% or more, read-out: MIC
[4] = clinical isolate CBS545.95, growth inhibited by 80% or more, read-out: MIC
[5] = clinical isolate CBS601.85, growth inhibited by 80% or more, read-out: MIC
[6] = clinical isolate CBS619.84, growth inhibited by 80% or more, read-out: MIC
[7] = geometric mean of the 4 strains measured, read-out: GM (geometric mean of MIC)
[8] = range of the 4 strains measured, read-out: MIC range

## CCC(C)n1ncn(-c2ccc(N3CCN(c4ccc(OCC5COC(Cn6cncn6)(c6ccc(Cl)cc6Cl)O5)cc4)CC3)cc2)c1=O (centres unmarked) [ITZ, itraconazole]
[1]; clinical isolate 530129
  MIC: > 4 µg/mL
[1]; clinical isolate 530142
  MIC: > 4 µg/mL
[1]; clinical isolate 530251
  MIC: > 4 µg/mL
[1]; clinical isolate 530621
  MIC: > 4 µg/mL
[1]; clinical isolate 530633
  MIC: > 4 µg/mL
[1]; clinical isolate 530914
  MIC: > 4 µg/mL
[1]; clinical isolate 530946
  MIC: > 4 µg/mL
[1]; clinical isolate 530999
  MIC: > 4 µg/mL
[1]; clinical isolate 531581
  MIC: > 4 µg/mL
[1]; clinical isolate 531869
  MIC: > 4 µg/mL
[1]
  MIC90: > 4 µg/mL
[2]; [3]
  MIC: > 4 µg/mL
[2]; [4]
  MIC: > 4 µg/mL
[2]; [5]
  MIC: 0.016 µg/mL (≈ 0.0227 µM)
[2]; [6]
  MIC: > 4 µg/mL
[2]; [7]
  MIC: > 4 µg/mL

## CC(=O)N1CCN(c2ccc(OCC3COC(Cn4ccnc4)(c4ccc(Cl)cc4Cl)O3)cc2)CC1 (centres unmarked) [KCZ, ketoconazole]
[1]; clinical isolate 530129
  MIC: 4 µg/mL (≈ 7.53 µM)
[1]; clinical isolate 530142
  MIC: > 4 µg/mL
[1]; clinical isolate 530251
  MIC: > 4 µg/mL
[1]; clinical isolate 530621
  MIC: > 4 µg/mL
[1]; clinical isolate 530633
  MIC: 4 µg/mL (≈ 7.53 µM)
[1]; clinical isolate 530914
  MIC: > 4 µg/mL
[1]; clinical isolate 530946
  MIC: > 4 µg/mL
[1]; clinical isolate 530999
  MIC: > 4 µg/mL
[1]; clinical isolate 531581
  MIC: > 4 µg/mL
[1]; clinical isolate 531869
  MIC: 2 µg/mL (≈ 3.76 µM)
[1]
  MIC90: > 4 µg/mL
[2]; [3]
  MIC: 2 µg/mL (≈ 3.76 µM)
[2]; [4]
  MIC: 1 µg/mL (≈ 1.88 µM)
[2]; [5]
  MIC: 0.031 µg/mL (≈ 0.0583 µM)
[2]; [6]
  MIC: 2 µg/mL (≈ 3.76 µM)
[2]; [7]
  MIC: 0.59 µg/mL (≈ 1.11 µM)
[2]; [8]
  MIC: 0.031 to 2 µg/mL (≈ 0.0583 to 3.76 µM)

## N#C/C(=C1/SCC(c2ccccc2Cl)S1)n1ccnc1 (centres unmarked) [LCZ, [4-(2-chlorophenyl)-1,3-dithioran-2-ylidene](1H-imidazol-1-yl)acetonitrile]
[1]; clinical isolate 530129
  MIC: 0.0039 µg/mL (≈ 0.0122 µM)
[1]; clinical isolate 530142
  MIC: 0.002 µg/mL (≈ 0.00625 µM)
[1]; clinical isolate 530251
  MIC: 0.0039 µg/mL (≈ 0.0122 µM)
[1]; clinical isolate 530621
  MIC: 0.0039 µg/mL (≈ 0.0122 µM)
[1]; clinical isolate 530633
  MIC: 0.0039 µg/mL (≈ 0.0122 µM)
[1]; clinical isolate 530914
  MIC: 0.0039 µg/mL (≈ 0.0122 µM)
[1]; clinical isolate 530946
  MIC: 0.0039 µg/mL (≈ 0.0122 µM)
[1]; clinical isolate 530999
  MIC: 0.002 µg/mL (≈ 0.00625 µM)
[1]; clinical isolate 531581
  MIC: 0.0039 µg/mL (≈ 0.0122 µM)
[1]; clinical isolate 531869
  MIC: 0.002 µg/mL (≈ 0.00625 µM)
[1]
  MIC90: 0.0039 µg/mL (≈ 0.0122 µM)
[2]; [3]
  MIC: 0.002 µg/mL (≈ 0.00625 µM)
[2]; [4]
  MIC: 0.00098 µg/mL (≈ 0.00306 µM)
[2]; [5]
  MIC: 0.00024 µg/mL (≈ 0.00075 µM)
[2]; [6]
  MIC: 0.002 µg/mL (≈ 0.00625 µM)
[2]; [7]
  MIC: 0.00098 µg/mL (≈ 0.00306 µM)
[2]; [8]
  MIC: 0.00024 to 0.002 µg/mL (≈ 0.00075 to 0.00625 µM)

## N#C/C(=C1/SC[C@@H](c2ccc(Cl)cc2Cl)S1)n1ccnc1 [LLCZ, (−)-(E)-[(4R)-(2,4-dichlorophenyl)-1,3-dithioran-2-ylidene](1H-imidazol-1-yl)acetonitrile]
[1]; clinical isolate 530129
  MIC: 0.002 µg/mL (≈ 0.00565 µM)
[1]; clinical isolate 530142
  MIC: 0.002 µg/mL (≈ 0.00565 µM)
[1]; clinical isolate 530251
  MIC: 0.002 µg/mL (≈ 0.00565 µM)
[1]; clinical isolate 530621
  MIC: 0.002 µg/mL (≈ 0.00565 µM)
[1]; clinical isolate 530633
  MIC: 0.002 µg/mL (≈ 0.00565 µM)
[1]; clinical isolate 530914
  MIC: 0.002 µg/mL (≈ 0.00565 µM)
[1]; clinical isolate 530946
  MIC: 0.002 µg/mL (≈ 0.00565 µM)
[1]; clinical isolate 530999
  MIC: 0.002 µg/mL (≈ 0.00565 µM)
[1]; clinical isolate 531581
  MIC: 0.002 µg/mL (≈ 0.00565 µM)
[1]; clinical isolate 531869
  MIC: 0.00098 µg/mL (≈ 0.00277 µM)
[1]
  MIC90: 0.002 µg/mL (≈ 0.00565 µM)
[2]; [3]
  MIC: 0.00098 µg/mL (≈ 0.00277 µM)
[2]; [4]
  MIC: 0.00098 µg/mL (≈ 0.00277 µM)
[2]; [5]
  MIC: 0.00012 µg/mL (≈ 0.000339 µM)
[2]; [6]
  MIC: 0.00098 µg/mL (≈ 0.00277 µM)
[2]; [7]
  MIC: 0.00058 µg/mL (≈ 0.00164 µM)
[2]; [8]
  MIC: 0.00012 to 0.00098 µg/mL (≈ 0.000339 to 0.00277 µM)

## Clc1ccc(COC(Cn2ccnc2)c2ccc(Cl)cc2Cl)c(Cl)c1 (centres unmarked) [MCZ, miconazole]
[1]; clinical isolate 530129
  MIC: 1 µg/mL (≈ 2.4 µM)
[1]; clinical isolate 530142
  MIC: 1 µg/mL (≈ 2.4 µM)
[1]; clinical isolate 530251
  MIC: 1 µg/mL (≈ 2.4 µM)
[1]; clinical isolate 530621
  MIC: 1 µg/mL (≈ 2.4 µM)
[1]; clinical isolate 530633
  MIC: 0.5 µg/mL (≈ 1.2 µM)
[1]; clinical isolate 530914
  MIC: 1 µg/mL (≈ 2.4 µM)
[1]; clinical isolate 530946
  MIC: 1 µg/mL (≈ 2.4 µM)
[1]; clinical isolate 530999
  MIC: 0.5 µg/mL (≈ 1.2 µM)
[1]; clinical isolate 531581
  MIC: 0.5 µg/mL (≈ 1.2 µM)
[1]; clinical isolate 531869
  MIC: 0.5 µg/mL (≈ 1.2 µM)
[1]
  MIC90: 1 µg/mL (≈ 2.4 µM)
[2]; [3]
  MIC: 0.5 µg/mL (≈ 1.2 µM)
[2]; [4]
  MIC: 0.5 µg/mL (≈ 1.2 µM)
[2]; [5]
  MIC: 0.063 µg/mL (≈ 0.151 µM)
[2]; [6]
  MIC: 0.5 µg/mL (≈ 1.2 µM)
[2]; [7]
  MIC: 0.3 µg/mL (≈ 0.721 µM)
[2]; [8]
  MIC: 0.063 to 0.5 µg/mL (≈ 0.151 to 1.2 µM)

## CN(C/C=C/C#CC(C)(C)C)Cc1cccc2ccccc12 [TBF, terbinafine]
[1]; clinical isolate 530129
  MIC: 0.5 µg/mL (≈ 1.72 µM)
[1]; clinical isolate 530142
  MIC: 0.25 µg/mL (≈ 0.858 µM)
[1]; clinical isolate 530251
  MIC: 0.5 µg/mL (≈ 1.72 µM)
[1]; clinical isolate 530621
  MIC: 0.5 µg/mL (≈ 1.72 µM)
[1]; clinical isolate 530633
  MIC: 0.25 µg/mL (≈ 0.858 µM)
[1]; clinical isolate 530914
  MIC: 0.25 µg/mL (≈ 0.858 µM)
[1]; clinical isolate 530946
  MIC: 1 µg/mL (≈ 3.43 µM)
[1]; clinical isolate 530999
  MIC: 0.5 µg/mL (≈ 1.72 µM)
[1]; clinical isolate 531581
  MIC: 0.5 µg/mL (≈ 1.72 µM)
[1]; clinical isolate 531869
  MIC: 0.5 µg/mL (≈ 1.72 µM)
[1]
  MIC90: 0.5 µg/mL (≈ 1.72 µM)
[2]; [3]
  MIC: 0.25 µg/mL (≈ 0.858 µM)
[2]; [4]
  MIC: 0.5 µg/mL (≈ 1.72 µM)
[2]; [5]
  MIC: 1 µg/mL (≈ 3.43 µM)
[2]; [6]
  MIC: 0.25 µg/mL (≈ 0.858 µM)
[2]; [7]
  MIC: 0.42 µg/mL (≈ 1.44 µM)
[2]; [8]
  MIC: 0.25 to 1 µg/mL (≈ 0.858 to 3.43 µM)
